{
  "source": "patent US6803372B2",
  "about": "“Spiro compounds” (Banyu Pharmaceutical Co., Ltd., priority 1999, dated 2004)",
  "data": [
    {"molecular_target": "T1, human NPY Y5 receptor (Homo sapiens, UniProt Q15761)", "T1 construct": "expressed in transfected cells; host or cells: COS-7, CHO and LM(tk-)", "T1 sequence (Q15761 1-445)": "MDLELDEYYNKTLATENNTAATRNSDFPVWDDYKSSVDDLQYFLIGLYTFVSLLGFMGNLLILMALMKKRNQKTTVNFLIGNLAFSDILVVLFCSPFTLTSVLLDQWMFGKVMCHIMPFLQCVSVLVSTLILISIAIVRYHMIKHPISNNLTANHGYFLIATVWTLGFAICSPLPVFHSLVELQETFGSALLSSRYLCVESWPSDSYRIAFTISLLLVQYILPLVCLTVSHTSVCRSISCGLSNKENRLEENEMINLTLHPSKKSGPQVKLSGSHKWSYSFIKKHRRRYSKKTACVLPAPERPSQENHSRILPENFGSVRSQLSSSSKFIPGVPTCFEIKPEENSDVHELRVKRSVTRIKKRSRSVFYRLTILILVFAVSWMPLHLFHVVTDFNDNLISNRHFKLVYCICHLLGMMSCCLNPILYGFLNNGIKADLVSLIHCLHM", "experiment": "NPY binding inhibition test (Pharmacological Test 1)", "settings": "[125I]peptideYY, membrane sample from cells expressing NPY Y5 receptor, 25° C., 2 hours; read-out: IC50 of the test compound against specific peptideYY binding", "from_the_text": "Pharmacological Test 1 (NPY Binding Inhibition Test)\ncDNA sequence encoding human NPY Y5 receptor [International patent publication number WO96/16542] was cloned into expression vectors pcDNA3, pRc/RSV (made by Invitrogen Inc.) and pCI-neo (made by Promega Inc.). This obtained expression vectors were transfected to host cells COS-7, CHO and LM(tk-) (American Type Culture Collection) by cationic lipid method [Proceedings of the National Academy of Sciences of the United States of America, 84: 7413(1987)] to give NPY Y5 receptor expression cells.\nA membrane sample prepared from the cells which expressed NPY Y5 receptor was incubated together with a test compound and [^125I]peptideYY (NEN) (20,000 cpm) in an assay buffer (25 mM Tris buffer, pH7.4, containing 10 mM magnesium chloride, 1 mM phenylmethylsulfonyl fluoride, 0.1% bacitracin and 0.5% bovine serum albumin) at 25° C. for 2 hours, then filtered through a glass filter GF/C and washed with 5 mM Tris buffer (pH7.4) containing 0.3% BSA. The radioactivity of the cake on the glass filter was measured. Nonspecific binding was measured in the presence of 1 μM peptideYY and a 50% Inhibitory Concentration (IC50) of the test compound against specific peptideYY binding was determined [Endocrinology, 131: 2090(1992)].", "units": {"IC50": "nM"}, "values": [
      {"smiles": "O=C1OC2(CCC(C(=O)Nc3ncc(-c4ccccc4)cn3)CC2)c2ccccc21", "note": "(stereo not drawn) [Example 50, Trans-3′-oxo-N-(5-phenyl-2-pyrimidinyl)spiro[cyclohexane-1,1′(3′H)-isobenzofuran]-4-carboxamide]", "IC50": 0.48},
      {"smiles": "O=C1Cc2ccccc2C2(CCN(C(=O)Nc3ccc(C(=O)c4ccccc4)cc3)CC2)O1", "note": "[Example 44, N-(4-benzoylphenyl)-3,4-dihydro-3-oxospiro[1H-2-benzopyran-1,4′-piperidine]-1′-carboxamide]", "IC50": 1.5},
      {"smiles": "O=C(c1ccccc1)c1ccc(NC(=O)N2CCC3(CC2)NC(=O)c2ccccc23)cc1", "note": "[Example 1, N-(4-benzoylphenyl)-3-oxospiro[isoindoline-1,4′-piperidine]-1′-carboxamide]", "IC50": 1.2}
    ]},
    {"tested_on": "not given", "experiment": "not given", "settings": "not given", "units": {"melting point": "°C"}, "values": [
      {"smiles": "O=C1Cc2ccccc2C2(CCN(C(=O)Nc3cn(-c4cccc5ccoc45)cn3)CC2)N1", "note": "[Example 13, N-[1-(7-benzo[b]furanyl)-4-imidazolyl]-3,4-dihydro-3-oxospiro[isoquinoline-1(2H),4′-piperidine]-1′-carboxamide]", "melting point": "192 to 194"},
      {"smiles": "O=C1Cc2ccccc2C2(CCN(C(=O)Nc3ncc(-c4ccccc4)s3)CC2)N1", "note": "[Example 18, 3,4-Dihydro-3-oxo-N-(5-phenyl-2-thiazolyl)spiro[isoquinoline-1(2H),4′-piperidine]-1′-carboxamide]", "melting point": "> 300"},
      {"smiles": "O=C1Cc2ccccc2C2(CCN(C(=O)Nc3nc4cc(Cl)ccc4o3)CC2)N1", "note": "[Example 21, N-(5-chloro-2-benzoxazolyl)-3,4-dihydro-3-oxospiro[isoquinoline-1(2H),4′-piperidine]-1′-carboxamide]", "melting point": "256 to 258"},
      {"smiles": "O=C1Cc2ccccc2C2(CCN(C(=O)Nc3ccc(Cl)c(Cl)c3)CC2)N1", "note": "[Example 16, N-(3,4-dichlorophenyl)-3,4-dihydro-3-oxospiro[isoquinoline-1(2H),4′-piperidine]-1′-carboxamide]", "melting point": "> 300"},
      {"smiles": "O=C1Cc2ccccc2C2(CCN(C(=O)Nc3cnc(-c4ccccc4)cn3)CC2)N1", "note": "[Example 6, 3,4-Dihydro-3-oxo-N-(5-phenyl-2-pyrazinyl)spiro[isoquinoline-1(2H),4′-piperidine]-1′-carboxamide]", "melting point": "237 to 239"},
      {"smiles": "O=C1Cc2ccccc2C2(CCN(C(=O)Nc3cn(-c4cccc(Cl)c4)cn3)CC2)N1", "note": "[Example 17, N-[1-(3-chlorophenyl)-4-imidazolyl]-3,4-dihydro-3-oxospiro[isoquinoline-1(2H),4′-piperidine]-1′-carboxamide]", "melting point": "255 to 258"},
      {"smiles": "O=C1Cc2ccccc2C2(CCN(C(=O)Nc3ccc(C(=O)c4ccccn4)cc3)CC2)N1", "note": "[Example 15, 3,4-Dihydro-3-oxo-N-[4-(2-pyridylcarbonyl)phenyl]spiro[isoquinoline-1(2H),4′-piperidine]-1′-carboxamide]", "melting point": "162 to 164"},
      {"smiles": "O=C1OC2(CCN(C(=O)Nc3ccc4ncc(OC(F)F)cc4n3)CC2)c2ccccc21", "note": "[Example 35, N-(7-difluoromethoxypyrido[3,2-b]pyridin-2-yl)-3-oxospiro[isobenzofuran-1(3H),4′-piperidine]-1′-carboxamide]", "melting point": 193},
      {"smiles": "O=C1Cc2ccccc2C2(CCN(C(=O)Nc3cc(-c4ccccc4)no3)CC2)N1", "note": "[Example 12, 3,4-Dihydro-3-oxo-N-(3-phenyl-5-isoxazolyl)spiro[isoquinoline-1(2H),4′-piperidine]-1′-carboxamide]", "melting point": "239 to 241"},
      {"smiles": "O=C1OC2(CCN(C(=O)Nc3cc(-c4cnc5ccccc5c4)[nH]n3)CC2)c2ccccc21", "note": "[Example 31, 3-oxo-N-[5-(3-quinolyl)-3-pyrazolyl]spiro[isobenzofuran-1(3H),4′-piperidine]-1′-carboxamide]", "melting point": "253 to 257"},
      {"smiles": "Cc1cccc2sc(NC(=O)N3CCC4(CC3)NC(=O)Cc3ccccc34)nc12", "note": "[Example 20, 3,4-Dihydro-N-(4-methyl-2-benzothiazolyl)-3-oxospiro[isoquinoline-1(2H),4′-piperidine]-1′-carboxamide]", "melting point": "144 to 146"},
      {"smiles": "O=C1Cc2ccccc2C2(CCN(C(=O)Nc3cn(-c4cccc(OC(F)F)c4)cn3)CC2)N1", "note": "[Example 14, N-[1-(3-difluoromethoxyphenyl)-4-imidazolyl]-3,4-dihydro-3-oxospiro[isoquinoline-1(2H),4′-piperidine]-1′-carboxamide]", "melting point": "161 to 163"},
      {"smiles": "Cc1ccc2ccc(NC(=O)N3CCC4(CC3)OC(=O)c3ccccc34)nc2c1", "note": "[Example 24, N-(7-methyl-2-quinolyl)-3-oxospiro[isobenzofuran-1(3H),4′-piperidine]-1′-carboxamide]", "melting point": "178 to 180"},
      {"smiles": "CC(C)=Cc1cnc(NC(=O)N2CCC3(CC2)NC(=O)Cc2ccccc23)cn1", "note": "[Example 11, 3,4-Dihydro-N-[5-(2-methyl-1-propenyl)-2-pyrazinyl]-3-oxospiro[isoquinoline-1(2H),4′-piperidine]-1′-carboxamide]", "melting point": "232.9 to 236.5"},
      {"smiles": "O=C1Cc2ccccc2C2(CCN(C(=O)Nc3cnc(C(=O)c4ccccc4)cn3)CC2)O1", "note": "[Example 46, N-(5-benzoyl-2-pyrazinyl)-3,4-dihydro-3-oxospiro[1H-2-benzopyran-1,4′-piperidine]-1′-carboxamide]", "melting point": "128 to 131"},
      {"smiles": "CCn1ccnc1-c1ccc(NC(=O)N2CCC3(CC2)OC(=O)c2ccccc23)cc1", "note": "[Example 38, N-[4-(1-ethyl-2-imidazolyl)phenyl]-3-oxospiro[isobenzofuran-1(3H),4′-piperidine]-1′-carboxamide]", "melting point": "221 to 223"},
      {"smiles": "Cc1ccc2ccc(NC(=O)N3CCC4(CC3)NC(=O)Cc3ccccc34)nc2c1", "note": "[Example 7, 3,4-Dihydro-N-(7-methyl-2-quinolyl)-3-oxospiro[isoquinoline-1(2H),4′-piperidine]-1′-carboxamide]", "melting point": "216 to 218"},
      {"smiles": "O=C1OC2(CCN(C(=O)Nc3cn(-c4cccc(CCO)c4)cn3)CC2)c2ccccc21", "note": "[Example 37, N-{1-[3-(2-hydroxyethyl)phenyl]-4-imidazolyl}-3-oxospiro[isobenzofuran-1(3H),4′-piperidine]-1′-carboxamide]", "melting point": "99 to 100"},
      {"smiles": "CC(=O)c1ccc(NC(=O)N2CCC3(CC2)NC(=O)Cc2ccccc23)cc1", "note": "[Example 8, N-(4-acetylphenyl)-3,4-dihydro-3-oxospiro[isoquinoline-1(2H),4′-piperidine]-1′-carboxamide]", "melting point": "> 300"},
      {"smiles": "O=C1Cc2ccccc2C2(CCN(C(=O)Nc3ccc4c(c3)CCCC4=O)CC2)N1", "note": "[Example 10, 3,4-Dihydro-3-oxo-N-(5-oxo-5,6,7,8-tetrahydro-2-naphthyl)spiro[isoquinoline-1(2H),4′-piperidine]-1′-carboxamide]", "melting point": "220.5 to 222.2"},
      {"smiles": "COc1cccc(-n2cnc(NC(=O)N3CCC4(CC3)OC(=O)c3ccccc34)c2)c1", "note": "[Example 39, N-[1-(3-methoxyphenyl)-4-imidazolyl]-3-oxospiro[isobenzofuran-1(3H),4′-piperidine]-1′-carboxamide]", "melting point": "208 to 210"},
      {"smiles": "O=C1NC2(CCN(C(=O)Nc3cnc(-c4ccccc4)cn3)CC2)c2ccccc21", "note": "[Example 2, 3-oxo-N-(5-phenyl-2-pyrazinyl)spiro[isoindoline-1,4′-piperidine]-1′-carboxamide]", "melting point": "286 to 287"},
      {"smiles": "O=C1OC2(CCN(C(=O)Nc3cc(-c4ccc(Cl)cc4)[nH]n3)CC2)c2ccccc21", "note": "[Example 30, N-[5-(4-chlorophenyl)-3-pyrazolyl]-3-oxospiro[isobenzofuran-1(3H),4′-piperidine]-1′-carboxamide]", "melting point": "255 to 258"},
      {"smiles": "O=C1Cc2ccccc2C2(CCN(C(=O)Nc3cnc(-c4ccccn4)cn3)CC2)N1", "note": "[Example 19, 3,4-Dihydro-3-oxo-N-[5-(2-pyridyl)-2-pyrazinyl]spiro[isoquinoline-1(2H),4′-piperidine]-1′-carboxamide]", "melting point": "223 to 225"},
      {"smiles": "Cc1ccc2ccc(NC(=O)N3CCC4(CC3)NC(=O)c3ccccc34)nc2c1", "note": "[Example 3, N-(7-methyl-2-quinolyl)-3-oxospiro[isoindoline-1,4′-piperidine]-1′-carboxamide]", "melting point": "194 to 196"},
      {"smiles": "O=C1OC2(CCN(C(=O)Nc3cn(-c4cnc5ccccc5c4)cn3)CC2)c2ccccc21", "note": "[Example 28, 3-Oxo-N-[1-(3-quinolyl)-4-imidazolyl]spiro[isobenzofuran-1(3H),4′-piperidine]-1′-carboxamide]", "melting point": "251 to 254"}
    ]}
  ]
}
